Laboratory results as given in PubChem BioAssay AID256 (DTP/NCI, 2004).
Values joined by “and” are separate entries in the source; they are usually repeats but may differ in a detail not shown here. Equal entries are not always repeated. Toxic doses and inconclusive results are not listed.

System: CD2F1 mice, L1210 leukemia ip, survival T/C
Assay: NCI In Vivo Anticancer Drug Screen. Data for tumor model L1210 Leukemia (intraperitoneal) in CD2F1 (CDF1) mice
Conditions: higher = longer survival
How it was run: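 Each value reflects a quotient of treated over vehicle control outcomes in mice with a transplanted tumor.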

[1] = endpoint: mean survival time, dose: 100.0 mg/kg/injection, schedule: Q01DX001 (ip), vehicle: saline with Tween-80
[2] = endpoint: mean survival time, dose: 200.0 mg/kg/injection, schedule: Q01DX001 (ip), vehicle: saline with Tween-80
[3] = endpoint: mean survival time, dose: 400.0 mg/kg/injection, schedule: Q01DX001 (ip), vehicle: saline with Tween-80
[4] = endpoint: mean survival time, dose: 100.0 mg/kg/injection, schedule: Q01DX009 (ip), vehicle: saline with Tween-80
[5] = endpoint: mean survival time, dose: 200.0 mg/kg/injection, schedule: Q01DX009 (ip), vehicle: saline with Tween-80
[6] = endpoint: mean survival time, dose: 400.0 mg/kg/injection, schedule: Q01DX009 (ip), vehicle: saline with Tween-80
[7] = endpoint: mean survival time, dose: 25.0 mg/kg/injection, schedule: Q04DX003 (ip), vehicle: saline with Tween-80
[8] = endpoint: mean survival time, dose: 50.0 mg/kg/injection, schedule: Q04DX003 (ip), vehicle: saline with Tween-80
[9] = endpoint: mean survival time, dose: 100.0 mg/kg/injection, schedule: Q04DX003 (ip), vehicle: saline with Tween-80
[10] = endpoint: mean survival time, dose: 12.5 mg/kg/injection, schedule: Q04DX003 (ip), vehicle: saline with Tween-80
[11] = endpoint: mean survival time, dose: 12.5 mg/kg/injection, schedule: Q01DX001 (ip), vehicle: saline with Tween-80
[12] = endpoint: mean survival time, dose: 25.0 mg/kg/injection, schedule: Q01DX001 (ip), vehicle: saline with Tween-80
[13] = endpoint: mean survival time, dose: 25.0 mg/kg/injection, schedule: Q01DX009 (ip), vehicle: saline with Tween-80
[14] = endpoint: mean survival time, dose: 50.0 mg/kg/injection, schedule: Q01DX009 (ip), vehicle: saline with Tween-80
[15] = endpoint: mean survival time, dose: 12.5 mg/kg/injection, schedule: Q04DX002 (ip), vehicle: saline with Tween-80
[16] = endpoint: mean survival time, dose: 25.0 mg/kg/injection, schedule: Q01DX009 (ip), vehicle: saline
[17] = endpoint: mean survival time, dose: 25.0 mg/kg/injection, schedule: Q04DX002 (ip), vehicle: saline with Tween-80
[18] = endpoint: mean survival time, dose: 50.0 mg/kg/injection, schedule: Q01DX001 (ip), vehicle: saline with Tween-80

## O=NN(CCCl)C(=O)/N=N/C(=O)N(CCCl)N=O
endpoint: median survival time, dose: 3.12 mg/kg/injection, schedule: Q01DX001 (ip), vehicle: water
  T/C: 100 % of control
endpoint: median survival time, dose: 6.25 mg/kg/injection, schedule: Q01DX001 (ip), vehicle: water
  T/C: 98 % of control
endpoint: median survival time, dose: 12.5 mg/kg/injection, schedule: Q01DX001 (ip), vehicle: water
  T/C: 113 % of control
endpoint: median survival time, dose: 25.0 mg/kg/injection, schedule: Q01DX001 (ip), vehicle: water
  T/C: 103 % of control and 105 % of control
endpoint: median survival time, dose: 50.0 mg/kg/injection, schedule: Q01DX001 (ip), vehicle: water
  T/C: 98 % of control and 112 % of control
endpoint: median survival time, dose: 100.0 mg/kg/injection, schedule: Q01DX001 (ip), vehicle: water
  T/C: 115 % of control (2×) and 122 % of control

## NNc1ccccc1-c1nc2ccccc2[nH]1
endpoint: mean survival time, dose: 75.0 mg/kg/injection, schedule: Q01DX001 (ip), vehicle: saline
  T/C: 96 % of control
endpoint: mean survival time, dose: 150.0 mg/kg/injection, schedule: Q01DX001 (ip), vehicle: saline
  T/C: 96 % of control
endpoint: mean survival time, dose: 300.0 mg/kg/injection, schedule: Q01DX001 (ip), vehicle: saline
  T/C: 108 % of control

## CCOCCO
endpoint: mean survival time, dose: 5.0 mg/kg/injection, schedule: Q01DX001 (ip), vehicle: saline sonified
  T/C: 103 % of control
endpoint: mean survival time, dose: 10.0 mg/kg/injection, schedule: Q01DX001 (ip), vehicle: saline sonified
  T/C: 101 % of control
endpoint: mean survival time, dose: 20.0 mg/kg/injection, schedule: Q01DX001 (ip), vehicle: saline sonified
  T/C: 101 % of control

## O=C(O)CCCC(=O)c1ccccc1
endpoint: mean survival time, dose: 50.0 mg/kg/injection, schedule: Q01DX009 (ip), vehicle: Klucel (hydroxypropylcellulose) (HPC)
  T/C: 91 % of control
endpoint: mean survival time, dose: 100.0 mg/kg/injection, schedule: Q01DX009 (ip), vehicle: Klucel (hydroxypropylcellulose) (HPC)
  T/C: 91 % of control
endpoint: mean survival time, dose: 200.0 mg/kg/injection, schedule: Q01DX009 (ip), vehicle: Klucel (hydroxypropylcellulose) (HPC)
  T/C: 95 % of control

## O=C1CC(c2ccccc2)=NO1
[1]
  T/C: 106 % of control
[2]
  T/C: 101 % of control
[3]
  T/C: 101 % of control

## COC1OC(COS(=O)(=O)c2ccc(C)cc2)C(O)C(O)C1O (stereo not given)
[1]
  T/C: 100 % of control
[4]
  T/C: 96 % of control
[2]
  T/C: 95 % of control
[5]
  T/C: 91 % of control
[3]
  T/C: 94 % of control
[6]
  T/C: 94 % of control

## Cc1cc(C)c(CCc2c(C)cc(C)cc2C)c(C)c1
[7]
  T/C: 96 % of control
[8]
  T/C: 98 % of control
[4]
  T/C: 89 % of control
[9]
  T/C: 100 % of control
[5]
  T/C: 96 % of control
[6]
  T/C: 93 % of control

## OC(c1ccccc1)c1cc(-c2ccccc2)c(-c2ccccc2)cc1C(O)c1ccccc1 (stereo not given)
[10]
  T/C: 102 % of control
[7]
  T/C: 114 % of control

## O=C(O)c1cccs1
endpoint: mean survival time, dose: 100.0 mg/kg/injection, schedule: Q04DX003 (ip), vehicle: other
  T/C: 100 % of control
endpoint: mean survival time, dose: 200.0 mg/kg/injection, schedule: Q04DX003 (ip), vehicle: other
  T/C: 102 % of control

## CC([O-])C(=O)[O-].NCC1CCC1CN.[Pt+4] (stereo not given)
endpoint: median survival time, dose: 0.78 mg/kg/injection, schedule: Q04DX003 (ip), vehicle: saline
  T/C: 114 % of control
endpoint: median survival time, dose: 1.56 mg/kg/injection, schedule: Q04DX003 (ip), vehicle: saline
  T/C: 120 % of control
endpoint: median survival time, dose: 3.12 mg/kg/injection, schedule: Q04DX003 (ip), vehicle: saline
  T/C: 156 % of control
endpoint: median survival time, dose: 6.25 mg/kg/injection, schedule: Q04DX003 (ip), vehicle: saline
  T/C: 156 % of control
endpoint: median survival time, dose: 12.5 mg/kg/injection, schedule: Q04DX003 (ip), vehicle: saline
  T/C: 192 % of control and 341 % of control
endpoint: median survival time, dose: 25.0 mg/kg/injection, schedule: Q04DX003 (ip), vehicle: saline
  T/C: 168 % of control and 223 % of control

## c1ccc(-c2ncnc3c2Cc2ccccc2-3)cc1
endpoint: mean survival time, dose: 100.0 mg/kg/injection, schedule: Q01DX009 (ip), vehicle: saline sonified
  T/C: 94 % of control
endpoint: mean survival time, dose: 200.0 mg/kg/injection, schedule: Q01DX009 (ip), vehicle: saline sonified
  T/C: 100 % of control
endpoint: mean survival time, dose: 400.0 mg/kg/injection, schedule: Q01DX009 (ip), vehicle: saline sonified
  T/C: 98 % of control

## O=C(c1ccccc1)C(CC[P+](c1ccccc1)(c1ccccc1)c1ccccc1)(OBr)c1ccccc1 (stereo not given)
endpoint: mean survival time, dose: 6.25 mg/kg/injection, schedule: Q01DX001 (ip), vehicle: saline with Tween-80
  T/C: 112 % of control
[11]
  T/C: 97 % of control
[12]
  T/C: 101 % of control

## COc1ccc(/C=c2\[nH]c(=O)/c(=C/c3ccc(OC)c(OC)c3)[nH]c2=O)cc1OC
[13]
  T/C: 95 % of control
[14]
  T/C: 103 % of control
[4]
  T/C: 90 % of control

## O=C(Nc1ccccc1)Nc1cc(Cl)ccc1O
[1]
  T/C: 98 % of control
[2]
  T/C: 98 % of control
[3]
  T/C: 91 % of control

## CS(=O)(=O)CC#N
endpoint: mean survival time, dose: 6.25 mg/kg/injection, schedule: Q04DX002 (ip), vehicle: saline with Tween-80
  T/C: 91 % of control and 109 % of control
[11]
  T/C: 93 % of control
endpoint: mean survival time, dose: 12.5 mg/kg/injection, schedule: Q01DX009 (ip), vehicle: saline
  T/C: 92 % of control
[15]
  T/C: 91 % of control and 102 % of control
[10]
  T/C: 97 % of control
[12]
  T/C: 106 % of control
[16]
  T/C: 92 % of control and 98 % of control
[17]
  T/C: 94 % of control and 101 % of control
endpoint: mean survival time, dose: 25.0 mg/kg/injection, schedule: Q04DX002 (ip), vehicle: saline
  T/C: 99 % of control and 103 % of control
[7]
  T/C: 97 % of control
[18]
  T/C: 100 % of control
endpoint: mean survival time, dose: 50.0 mg/kg/injection, schedule: Q04DX002 (ip), vehicle: saline
  T/C: 100 % of control

## CC(C)(C)C1(C#N)C(=O)C2CCCCC21 (stereo not given)
[15]
  T/C: 105 % of control
[17]
  T/C: 97 % of control
endpoint: mean survival time, dose: 50.0 mg/kg/injection, schedule: Q04DX002 (ip), vehicle: saline with Tween-80
  T/C: 94 % of control

## CC(=O)OC1CCC2(C)C(=CCC3C2CCC2(C)C(C(C)CCCC(C)(C)O)CCC32)C1 (stereo not given)
[9]
  T/C: 97 % of control
endpoint: mean survival time, dose: 200.0 mg/kg/injection, schedule: Q04DX003 (ip), vehicle: saline with Tween-80
  T/C: 89 % of control
endpoint: mean survival time, dose: 400.0 mg/kg/injection, schedule: Q04DX003 (ip), vehicle: saline with Tween-80
  T/C: 94 % of control

## CCC[As](=O)(O)CCC
[16]
  T/C: 103 % of control
endpoint: mean survival time, dose: 50.0 mg/kg/injection, schedule: Q01DX009 (ip), vehicle: saline
  T/C: 108 % of control
endpoint: mean survival time, dose: 100.0 mg/kg/injection, schedule: Q01DX009 (ip), vehicle: saline
  T/C: 98 % of control

## OC1(c2ccccc2)CCN(C/C=C/c2ccccc2)CC1
[12]
  T/C: 102 % of control
[18]
  T/C: 101 % of control
[1]
  T/C: 102 % of control and 103 % of control

## Cc1nc(N)[nH]c(=O)c1CCCNc1cccnc1
[1]
  T/C: 96 % of control
[2]
  T/C: 92 % of control
[3]
  T/C: 92 % of control

## Nc1nc(N)c2cc(S(=O)(=O)c3ccccc3)ccc2n1
endpoint: median survival time, dose: 25.0 mg/kg/injection, schedule: Q01DX009 (ip), vehicle: saline with Tween-80
  T/C: 98 % of control
endpoint: median survival time, dose: 50.0 mg/kg/injection, schedule: Q01DX009 (ip), vehicle: saline with Tween-80
  T/C: 100 % of control
endpoint: median survival time, dose: 100.0 mg/kg/injection, schedule: Q01DX009 (ip), vehicle: saline with Tween-80
  T/C: 102 % of control
endpoint: median survival time, dose: 200.0 mg/kg/injection, schedule: Q01DX009 (ip), vehicle: saline with Tween-80
  T/C: 121 % of control

## Cc1ccc(C)c(C(=O)CCCCl)c1
[13]
  T/C: 105 % of control
[7]
  T/C: 93 % of control
[14]
  T/C: 97 % of control
[8]
  T/C: 96 % of control
[4]
  T/C: 100 % of control
[9]
  T/C: 96 % of control

## Cc1ccccc1-c1nc2c([nH]1)c(=O)n(C)c(=O)n2C
endpoint: mean survival time, dose: 12.5 mg/kg/injection, schedule: Q01DX005 (ip), vehicle: distilled water + Tween-80
  T/C: 87 % of control
endpoint: mean survival time, dose: 25.0 mg/kg/injection, schedule: Q01DX005 (ip), vehicle: distilled water + Tween-80
  T/C: 92 % of control and 94 % of control
endpoint: mean survival time, dose: 50.0 mg/kg/injection, schedule: Q01DX005 (ip), vehicle: distilled water + Tween-80
  T/C: 93 % of control and 95 % of control
endpoint: mean survival time, dose: 100.0 mg/kg/injection, schedule: Q01DX005 (ip), vehicle: distilled water + Tween-80
  T/C: 88 % of control
endpoint: mean survival time, dose: 200.0 mg/kg/injection, schedule: Q01DX005 (ip), vehicle: distilled water + Tween-80
  T/C: 88 % of control and 93 % of control
endpoint: mean survival time, dose: 400.0 mg/kg/injection, schedule: Q01DX005 (ip), vehicle: distilled water + Tween-80
  T/C: 90 % of control
